Results published in publication PMC11089204 (Frontiers in Pharmacology, 2024).

Tested on: CYP2D6
Assay: Influence of CYP2D6 genotype on psilocin plasma exposure in humans
Assay type: in vivo
Settings: human, PM/IM/EM/UM genotypes, AUC z-scores
Protocol: Genomic DNA was extracted from whole blood using the QIAamp DNA Blood Mini Kit (Qiagen, Hombrechtikon, Switzerland) and an automated QIAcube system. SNP genotyping was performed using commercial TaqMan SNP genotyping assays (LuBio Science, Lucerne, Switzerland). We assayed the following SNPs and respective alleles: CYP2D6*3 (rs35742686, assay: C_32407232_50), CYP2D6*4 (rs3892097, assay: C_27102431_D0, and rs1065852, assay: C_11484460_40), CYP2D6*6 (rs5030655, assay: C_32407243_20), CYP2D6*9 (rs5030656, assay: C_32407229_60), CYP2D6*10 (rs1065852), CYP2D6*17 (rs28371706, assay: C_2222771_A0, and rs16947, assay: C_27102425_10), CYP2D6*29 (rs59421388, assay: C_3486113_20), and CYP2D6*41 (rs28371725, assay: C_34816116_20, and rs16947). CYP2D6 gene deletion (allele *5) and duplication/multiplication (allele *xN) were determined using a TaqMan Copy Number Assay (Hs04502391_cn). Activity scores for CYP2D6 were assigned according to established guidelines ([Gaedigk et al., 2008]; [Crews et al., 2012]; [Hicks et al., 2013]; [Hicks et al., 2015]; [Caudle et al., 2020]). The classification into different genotypes was as follows: poor metabolizer (PM, activity score = 0), intermediate metabolizer (IM, activity score = 0.5–1), extensive metabolizer (EM, activity score = 1.5–2), and ultra-rapid metabolizer (UM, activity score > 2).

## CN(C)CCc1c[nH]c2cccc(O)c12 [psilocin, 4-hydroxy-N,N-dimethyltryptamine]
  effect of CYP2D6 genotype on plasma concentration of free psilocin: did not alter
